Test results from patent US20080057055A1, “OLD-35 as an inflammatory agent” (priority 2004, published 2008).

Tests used:
Format in all cases: cell-based, human
c-myc mRNA = experiment: Half-life of c-myc mRNA (Actinomycin D, Northern blot); conditions: HO-1 clones expressing the siRNA, compared to control untreated cells
Description: RNA Isolation and Northern Blot Analysis: Total RNA was extracted from cells using Qiagen RNeasy mini kit (Qiagen) according to the manufacturer's protocol and Northern blotting was performed as described (102). The cDNA probes used were a 400-bp fragment from human c-myc, a 500-bp fragment from hPNPase^old-35 and full-length human GAPDH.

HO-1 cells [1] = experiment: MTT cell viability assay; conditions: HO-1 clones, more pronounced after 6 days
Description: (§1) Transfection of siRNA: Cells (5×10^5) were plated in a 6 cm dish and the next day were transfected with 25 nM of either control siRNA or c-myc siRNA (Ambion; catalogue# 4250) using Lipofectamine 2000 (Invitrogen) according to the Manufacturer's protocol. After 24 h, the cells were trypsinized and seeded into 96-well plates for cell viability assays and 6-cm dishes for colony formation assays and cell cycle analyses as described above.

[2] = tested on: hPNPase^OLD-35 and Myc proteins; experiment: Western blot after IFN-β treatment or siRNA
[3] = tested on: HO-1, WM-35, MeWo and FM-516 cells; experiment: Cell cycle analysis by flow cytometry after IFN-β; conditions: HO-1 clones, IFN-β 1000 U/ml
Description: Cell Cycle Analysis: Cells were harvested, washed in PBS and fixed overnight at −20° C. in 70% ethanol. The cells were treated with RNase A (1 mg/ml) at 37° C. for 30 min and then with propidium iodide (50 μg/ml). Cell cycle was analyzed using a FACScan flow cytometer and data were analyzed using CellQuest software (Becton Dickinson, San Jose, Calif.).

HO-1 cells [4] = experiment: Colony formation assay with IFN-β; conditions: HO-1 clones
Description: as §1

hPNPase^old-35-siRNA: lentivirus-expressed siRNA for hPNPase^old-35, sequence 5′ AACAAAACCTTCCCCTTCCCA 3′ (SEQ ID NO:40)
half-life of c-myc mRNA after IFN-β (c-myc mRNA): remained unchanged | response of siRNA expressing clones to IFN-β (MTT) (HO-1 cells [1]): significant resistance | inhibition in hPNPase^OLD-35 induction by IFN-β ([2]; HO-1 clone 1 expressing the siRNA, IFN-β 1000 U/ml, 2 days): ~100% | ability to downregulate Myc in response to IFN-β ([2]; HO-1 clones 1, 4 and 5 expressing the siRNA): lost this ability | response of siRNA expressing clones to growth inhibition by IFN-β (cell cycle) [3]: remarkable resistance | response of siRNA expressing clones to IFN-β-induced inhibition of colony formation (HO-1 cells [4]): significant resistance
